# Values quoted from earlier work as cited in patent US11000479B2, “Injectable long-acting naltrexone microparticle compositions” (Chong Kun Dang Pharmaceutical Corp., priority 2018, dated 2021).
# Columns and labels:
# [1] = tested on: heroin/diamorphine effects
# [2] = tested on: morphine induced analgesia; conditions: rat model, hot-plate test
smiles,measurement,setting,value
O=C1CC[C@@]2(O)[C@H]3Cc4ccc(O)c5c4[C@@]2(CCN3CC2CC2)[C@H]1O5 [naltrexone],naltrexone level that completely antagonized heroin,[1]; 25 mg of heroin (Verebey et al. 1976),2.4 ng/mL
same,levels targeted as sufficient to offer protection from fatal opioid overdose,"[1]; Hulse et al. 2005, Comer et al. 2002",1 to 2 ng/mL
same,serum naltrexone level sufficient to block pure diamorphine,"[1]; doses as high as 500 mg diamorphine, two patients (Brewer 2002)",2.8 ng/mL
same,plasma naltrexone concentration shown to be effective,[2],1 to 2 ng/mL
